The text below walks through data of patent US8399502B2, “Analogs of indole-3-carbinol and their use as agents against infection” (priority 2008, dated 2013).

Each structure is given as a SMILES string. Values after ≈ are worked out from the molar mass of the structure shown. Some results are limits rather than exact numbers.

Common to all, as to format: cell-based
Assay [1] has as its system Francisella tularensis (FT; Gram-negative). Nature of the assay: microbe, parasite or virus in culture. The conditions noted are these: read-out: MIC FT.
The test system of assay [2] is Bacillus anthracis (BA; Gram-positive). Nature of the assay: microbe, parasite or virus in culture. The conditions noted are these: read-out: MIC BA.
The test system of assay [3] is methicillin-susceptible Staphylococcus aureus (MSSA). Briefly: microbe, parasite or virus in culture. The conditions noted are these: read-out: MIC MSSA.
The subject of assay [4] is methicillin-resistant Staphylococcus aureus (MRSA). Nature of the assay: microbe, parasite or virus in culture. The conditions noted are these: read-out: MIC MRSA.
Assay [5] deals with penicillin-susceptible S. pneumoniae (PSSP). Nature of the assay: microbe, parasite or virus in culture. The conditions noted are these: Streptococcus pneumoniae, read-out: MIC PSSP.
Assay [6] has as its system penicillin-resistant S. pneumoniae (PRSP). Nature of the assay: microbe, parasite or virus in culture. The conditions noted are these: Streptococcus pneumoniae, read-out: MIC PRSP.
Assay [7] deals with Acinetobacter baumannii (AB). Briefly: MIC determination. The conditions noted are these: Table 3.
Assay [8] concerns Listeria monocytogenes (LM). Briefly: MIC determination. The conditions noted are these: Table 3.
Assay [9] deals with Shigella dysenteriae (SD). Nature of the assay: MIC determination. The conditions noted are these: Table 3.
Assay [10] has as its system Vancomycin-resistant Enterococcus faecalis (VRE). Nature of the assay: MIC determination. The conditions noted are these: Table 3.
The subject of assay [11] is Vancomycin-Sensitive Enterococcus faecalis (VSE). Nature of the assay: MIC determination. The conditions noted are these: Table 3.
Assay [12] concerns Mycobacteruim tuberculosis H37Rv (H37Rv). Nature of the assay: microbe, parasite or virus in culture. The conditions noted are these: Mycobacterium tuberculosis, read-out: MIC against Tubercle bacillus.

For the compound `c1ccc2c(Cc3c[nH]c4ccccc34)c[nH]c2c1`, the MIC in assay [1] is 8 µg/mL (≈ 32.5 µM); in assay [2] it was > 64 µg/mL; in assay [3], > 64 µg/mL; in assay [4], > 64 µg/mL; in [5], > 64 µg/mL; in assay [6], 8 µg/mL (≈ 32.5 µM).

With `C=C(c1c[nH]c2ccccc12)c1c[nH]c2ccccc12`, the MIC turned out to be 16 µg/mL (≈ 61.9 µM) in assay [1]; 8 µg/mL (≈ 31 µM) in assay [2]; 8 µg/mL (≈ 31 µM) in assay [3]; 8 µg/mL (≈ 31 µM) in assay [4]; 4 µg/mL (≈ 15.5 µM) in assay [5]; 2 µg/mL (≈ 7.74 µM) in assay [6].

Consider `c1ccc2[nH]c(Cc3c[nH]c4ccccc34)cc2c1`, for which the MIC in assay [1] was 4 µg/mL (≈ 16.2 µM); in assay [2], 16 µg/mL (≈ 65 µM); in assay [3] it was 32 µg/mL (≈ 130 µM); in assay [4], 32 µg/mL (≈ 130 µM); in [5], 8 µg/mL (≈ 32.5 µM); in assay [6], 1 µg/mL (≈ 4.06 µM).

With `c1ccc2[nH]c(Cc3cc4ccccc4[nH]3)cc2c1`, the MIC stood at 4 µg/mL (≈ 16.2 µM) in assay [1]; 16 µg/mL (≈ 65 µM) in [2]; 16 µg/mL (≈ 65 µM) in assay [3]; 32 µg/mL (≈ 130 µM) in assay [4]; 1 µg/mL (≈ 4.06 µM) in [5]; 2 µg/mL (≈ 8.12 µM) in [6].

For `CCOC(=O)c1ccc2[nH]cc(Cc3c(C)[nH]c4ccccc34)c2c1`, the MIC in assay [1] was 4 µg/mL (≈ 12 µM); in assay [2] it was 8 µg/mL (≈ 24.1 µM); in [3] it was > 64 µg/mL; in [4] it was > 64 µg/mL; in assay [5], 2 µg/mL (≈ 6.02 µM); in assay [6] it was 8 µg/mL (≈ 24.1 µM).

For `CCOC(=O)Oc1c2[nH]c3ccccc3c2cc2c1[nH]c1ccccc12`, the MIC is ≤ 0.5 µg/mL in assay [1]; 4 µg/mL (≈ 11.6 µM) in assay [2]; 4 µg/mL (≈ 11.6 µM) in assay [3]; 4 µg/mL (≈ 11.6 µM) in assay [4]; 4 µg/mL (≈ 11.6 µM) in assay [5]; 2 µg/mL (≈ 5.81 µM) in [6].

As to `c1ccc2c(Cc3[nH]c4ccccc4c3Cc3c[nH]c4ccccc34)c[nH]c2c1`, the MIC came out at 2 µg/mL (≈ 5.33 µM) in assay [1]; 4 µg/mL (≈ 10.7 µM) in assay [2]; 8 µg/mL (≈ 21.3 µM) in assay [3]; 8 µg/mL (≈ 21.3 µM) in assay [4]; 4 µg/mL (≈ 10.7 µM) in assay [5]; 2 µg/mL (≈ 5.33 µM) in assay [6].

With `Cc1onc(-c2ccccc2)c1C(=O)N[C@@H]1C(=O)N2[C@@H]1SC(C)(C)[C@@H]2C(=O)O` [Oxacillin, oxacillin, reference compound], the MIC in assay [1] is > 64 µg/mL; in assay [2], 0.8 µg/mL (≈ 1.99 µM); in [4] it was > 64 µg/mL; in [5], 0.1 µg/mL (≈ 0.249 µM).

Turning to `Cc1c2[nH]c3ccccc3c2cc2c1[nH]c1ccccc12` [drawing 263], the MIC in assay [1] is ≤ 0.5 µg/mL; in assay [2], 1 µg/mL (≈ 3.7 µM); in [3], 2 µg/mL (≈ 7.4 µM); in assay [4] it was 4 µg/mL (≈ 14.8 µM); in [5], 1 µg/mL (≈ 3.7 µM); in assay [6] it was 1 µg/mL (≈ 3.7 µM).

On to `CN(C)CCOc1c2[nH]c3ccc(F)cc3c2cc2c1[nH]c1ccc(F)cc12` [drawing 265], for which the MIC was 4 µg/mL (≈ 10.5 µM) in [7]; 2 µg/mL (≈ 5.27 µM) in assay [8]; 8 µg/mL (≈ 21.1 µM) in [9]; 2 µg/mL (≈ 5.27 µM) in [10]; 1 µg/mL (≈ 2.64 µM) in [11].

For `N=C(N)NCCCOc1c2[nH]c3ccc(Cl)cc3c2cc2c1[nH]c1ccc(Cl)cc12` [drawing 266], the MIC in assay [7] was 4 µg/mL (≈ 9.08 µM); in assay [8], 1 µg/mL (≈ 2.27 µM); in assay [9], 4 µg/mL (≈ 9.08 µM); in assay [10], 2 µg/mL (≈ 4.54 µM); in [11], 4 µg/mL (≈ 9.08 µM).

On to `OC1CCN(CCCOc2c3[nH]c4ccc(Cl)cc4c3cc3c2[nH]c2ccc(Cl)cc23)CC1` [drawing 267], for which the MIC in [7] is 4 µg/mL (≈ 8.29 µM); in [8] it was 1 µg/mL (≈ 2.07 µM); in [9], 8 µg/mL (≈ 16.6 µM); in assay [10], 2 µg/mL (≈ 4.15 µM); in assay [11] it was 4 µg/mL (≈ 8.29 µM).

In the case of `N=C(N)NCCCOc1c2[nH]c3ccc(F)cc3c2cc2c1[nH]c1ccc(F)cc12` [drawing 268], the MIC amounted to 8 µg/mL (≈ 19.6 µM) in assay [7]; 4 µg/mL (≈ 9.82 µM) in assay [8]; 8 µg/mL (≈ 19.6 µM) in assay [9]; 2 µg/mL (≈ 4.91 µM) in assay [10]; 8 µg/mL (≈ 19.6 µM) in assay [11].

Take `Fc1ccc2[nH]c3c(O[C@@H]4CCNC4)c4[nH]c5ccc(F)cc5c4cc3c2c1` [drawing 269]: the MIC in [7] was 4 µg/mL (≈ 10.6 µM); in [8], 2 µg/mL (≈ 5.3 µM); in assay [9], 4 µg/mL (≈ 10.6 µM); in assay [10], 1 µg/mL (≈ 2.65 µM); in [11], 2 µg/mL (≈ 5.3 µM).

Take `Fc1ccc2[nH]c3c(OCCCNC4=NCCN4)c4[nH]c5ccc(F)cc5c4cc3c2c1` [drawing 270]: the MIC in assay [7] was found to be 4 µg/mL (≈ 9.23 µM); in assay [8], 2 µg/mL (≈ 4.61 µM); in assay [9] it was 8 µg/mL (≈ 18.5 µM); in assay [10] it was 1 µg/mL (≈ 2.31 µM); in assay [11] it was 4 µg/mL (≈ 9.23 µM).

Consider `Fc1ccc2[nH]c3c(O[C@@H]4CCNC4)c4[nH]c5ccc(F)cc5c4cc3c2c1` [drawing 279], for which, in assay [12], the MIC was found to be 10 µg/mL (≈ 26.5 µM).

In the case of `Fc1ccc2[nH]c3c(O[C@H]4CCNC4)c4[nH]c5ccc(F)cc5c4cc3c2c1` [drawing 280], the MIC in assay [12] amounted to 5 µg/mL (≈ 13.2 µM).

As for `Cc1c2[nH]c3ccccc3c2cc2c1[nH]c1ccccc12` [drawing 281], in assay [12], the MIC came to 10 µg/mL (≈ 37 µM).
